These results are taken from patent US8431593B2, “Heteroaryl amide derivatives” (H. Lundbeck A/S, priority 2006, dated 2013).

The assay has as its target T1, P2X7 receptor (Homo sapiens, UniProt Q99572).
T1 construct: host or cells: SH-SY5Y
T1 sequence (Q99572 1-595): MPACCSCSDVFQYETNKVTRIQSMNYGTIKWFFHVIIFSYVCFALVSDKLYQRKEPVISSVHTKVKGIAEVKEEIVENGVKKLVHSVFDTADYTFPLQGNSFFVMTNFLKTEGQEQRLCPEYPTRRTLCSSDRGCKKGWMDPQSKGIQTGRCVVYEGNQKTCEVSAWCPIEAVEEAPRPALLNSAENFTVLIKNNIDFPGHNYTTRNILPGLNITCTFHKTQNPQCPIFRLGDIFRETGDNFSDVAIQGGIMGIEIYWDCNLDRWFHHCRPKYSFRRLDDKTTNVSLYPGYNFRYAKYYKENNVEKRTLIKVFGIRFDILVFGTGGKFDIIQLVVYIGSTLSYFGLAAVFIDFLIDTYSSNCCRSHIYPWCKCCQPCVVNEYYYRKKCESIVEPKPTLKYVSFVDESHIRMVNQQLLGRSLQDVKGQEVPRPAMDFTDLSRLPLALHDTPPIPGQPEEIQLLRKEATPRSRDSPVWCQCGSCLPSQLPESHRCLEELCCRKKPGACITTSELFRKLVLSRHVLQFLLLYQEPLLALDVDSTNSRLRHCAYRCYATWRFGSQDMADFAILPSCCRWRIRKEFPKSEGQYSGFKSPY
The experiment in a line: P2X7 calcium mobilization assay, high throughput, antagonist activity (Example 4A). The class given is cell-based. As to conditions: SH-SY5Y cells; 50% decrease in fluorescence response to 80 μM BzATP; read-out: IC50. The method, boiled down:
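Antagonism was measured as calcium mobilization on FLIPR^TETRA after a 1 h room-temperature compound preincubation of dye-loaded cells. Baseline from no-agonist wells was subtracted from each well's maximum RFU.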

As for `CCCOCCNC(=O)Cc1cn2c(C(=O)NCC34CC5CC(CC(C5)C3)C4)cccc2n1` [Compound 159, N-(adamantan-1-ylmethyl)-2-{2-oxo-2-[(2-propoxyethyl)amino]eth-yl}imidazo[1,2-a]pyridine-5-carboxamide], the IC50 is < 2000 nM.

Turning to `CCC(COC)NC(=O)Cc1cn2c(C(=O)NCC34CC5CC(CC(C5)C3)C4)cccc2n1` (stereo not shown) [Compound 160, N-(adamantan-1-ylmethyl)-2-(2-{[1-(methoxymethyl)pro-pyl]amino}-2-oxoethyl)imidazo[1,2-a]pyridine-5-carboxamide], the IC50 was < 2000 nM. With `NC(=O)[C@H]1CCC[C@H]1NC(=O)Cc1cn2c(C(=O)NCC34CC5CC(CC(C5)C3)C4)cccc2n1` [Compound 161, N-(adamantan-1-ylmethyl)-2-(2-{[(1R,2S)-2-carbamoylcyclo-pentyl]amino}-2-oxoethyl)imidazo[1,2-a]pyridine-5-carboxamide], the IC50 was < 2000 nM. Turning to `O=C(Cc1cn2c(C(=O)NCC34CC5CC(CC(C5)C3)C4)cccc2n1)NN1CCOCC1` [Compound 162, N-(adamantan-1-ylmethyl)-2-[2-(morpholin-4-ylamino)-2-oxoethyl]imidazo[1,2-a]pyridine-5-carboxamide], the IC50 is < 2000 nM. Turning to `O=C(Cc1cn2c(C(=O)NCC34CC5CC(CC(C5)C3)C4)cccc2n1)NN1CCCCCC1` [Compound 163, N-(adamantan-1-ylmethyl)-2-[2-(azepan-1-ylamino)-2-oxoethyl]imidazo[1,2-a]pyridine-5-carboxamide], the IC50 is < 2000 nM. Turning to `CC(C)N1CCN(C(=O)Cc2cn3c(C(=O)NCC45CC6CC(CC(C6)C4)C5)cccc3n2)CC1` [Compound 164, N-(adamantan-1-ylmethyl)-2-[2-(4-isopropylpiperazin-1-yl)-2-oxoethyl]imidazo[1,2-a]pyridine-5-carboxamide], the IC50 was < 2000 nM.

For `CN(C)C(=O)Cc1cn2c(C(=O)NCC34CC5CC(CC(C5)C3)C4)cccc2n1` [Compound 165, N-(adamantan-1-ylmethyl)-2-[2-(dimethylamino)-2-oxoethyl]imidazo[1,2-a]pyridine-5-carboxamide], the IC50 is < 2000 nM. As to `CC(=O)N1CCN(C(=O)Cc2cn3c(C(=O)NCC45CC6CC(CC(C6)C4)C5)cccc3n2)CC1` [Compound 166, 2-[2-(4-acetylpiperazin-1-yl)-2-oxoethyl]-N-(adamantan-1-ylmethyl)imidazo[1,2-a]pyridine-5-carboxamide], the IC50 was < 2000 nM. For `O=CN1CCN(C(=O)Cc2cn3c(C(=O)NCC45CC6CC(CC(C6)C4)C5)cccc3n2)CC1` [Compound 167, N-(adamantan-1-ylmethyl)-2-[2-(4-formylpiperazin-1-yl)-2-oxoethyl]imidazo[1,2-a]pyridine-5-carboxamide], the IC50 is < 2000 nM. Next, `CCN(C)C(=O)Cc1cn2c(C(=O)NCC34CC5CC(CC(C5)C3)C4)cccc2n1` [Compound 168, N-(adamantan-1-ylmethyl)-2-{2-[ethyl(methyl)amino]-2-oxoethyl}imidazo[1,2-a]pyridine-5-carboxamide]: < 2000 nM; `CCN1CCN(C(=O)Cc2cn3c(C(=O)NCC45CC6CC(CC(C6)C4)C5)cccc3n2)CC1` [Compound 169, N-(adamantan-1-ylmethyl)-2-[2-(4-ethylpiperazin-1-yl)-2-oxoethyl]imidazo[1,2-a]pyridine-5-carboxamide]: < 2000 nM; `CC(=O)NC1CCN(C(=O)Cc2cn3c(C(=O)NCC45CC6CC(CC(C6)C4)C5)cccc3n2)C1` (stereo not shown) [Compound 170, 2-[2-(3-acetamidopyrrolidin-1-yl)-2-oxoethyl]-N-(adamantan-1-ylmethyl)imidazo[1,2-a]pyridine-5-carboxamide]: < 2000 nM. Next, `COC[C@@H]1CCCN1C(=O)Cc1cn2c(C(=O)NCC34CC5CC(CC(C5)C3)C4)cccc2n1` [Compound 171, N-(adamantan-1-ylmethyl)-2-{2-[(2S)-2-(methoxymethyl)pyrrolidin-1-yl]-2-oxoethyl}imidazo[1,2-a]pyridine-5-carboxamide]: < 2000 nM.
